In the supplement of paper PMC11061612:

What was measured:
Test in all cases: Bliss excess, mean over the matrix (fraction); higher = more synergy
[1] = tested on: DND-41 (T-Lymphoblastic Leukemia)
Procedure, shortened: (§1)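 Cell lines in DMEM/F12 or RPMI with 10% FBS were plated in 1536-well plates, held 24 hours at 37°C, 5% CO2, then given two-drug dose matrices for 72 hours (DMSO typically 0.2%). Viability was read by CellTiter-Glo 2.0 luminescence and scaled as inhibition from 0 (vehicle wells) to 1 (blank wells). Combination Emax is the second-highest inhibition in the matrix; Bliss excess is observed combination effect minus expected EA + EB − EA·EB, EA and EB being single-agent effects.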

[2] = tested on: BFTC-905 (Bladder Carcinoma)
Procedure, shortened: as §1

[3] = tested on: KM12 (Colorectal Carcinoma)
Procedure, shortened: as §1

[4] = tested on: NCI-H847 (Small Cell Lung Carcinoma)
Procedure, shortened: as §1

[5] = tested on: MKN28 (Gastric Carcinoma)
Procedure, shortened: as §1

CHP-212 (Neuroblastoma) = tested on: CHP-212 (Neuroblastoma)
Procedure, shortened: as §1

[6] = tested on: SU-DHL-8 (B-Cell Non-Hodgkin's Lymphoma)
Procedure, shortened: as §1

[7] = tested on: TE-6 (Esophageal Squamous Cell Carcinoma)
Procedure, shortened: as §1

[8] = tested on: PANC-08-13 (Pancreatic Carcinoma)
Procedure, shortened: as §1

ES1 (Ewing's Sarcoma) = tested on: ES1 (Ewing's Sarcoma)
Procedure, shortened: as §1

[9] = tested on: K-562 (Chronic Myelogenous Leukemia)
Procedure, shortened: as §1

[10] = tested on: KYSE-180 (Esophageal Squamous Cell Carcinoma)
Procedure, shortened: as §1

U251 (Low Grade Glioma) = tested on: U251 (Low Grade Glioma)
Procedure, shortened: as §1

[11] = tested on: NCI-H1792 (Lung Adenocarcinoma)
Procedure, shortened: as §1

[12] = tested on: HDQ-P1 (Breast Carcinoma)
Procedure, shortened: as §1

[13] = tested on: CAMA-1 (Breast Carcinoma)
Procedure, shortened: as §1

[14] = tested on: MFM-223 (Breast Carcinoma)
Procedure, shortened: as §1

WIL2-NS (Non-Cancerous) = tested on: WIL2-NS (Non-Cancerous)
Procedure, shortened: as §1

TC-71 (Ewing's Sarcoma) = tested on: TC-71 (Ewing's Sarcoma)
Procedure, shortened: as §1

[15] = tested on: L-540 (Hodgkin's Lymphoma)
Procedure, shortened: as §1

| SMILES | Bliss excess [1] | Bliss excess [2] | Bliss excess [3] | Bliss excess [4] | Bliss excess [5] | Bliss excess (CHP-212 (Neuroblastoma)) | Bliss excess [6] | Bliss excess [7] | Bliss excess [8] | Bliss excess (ES1 (Ewing's Sarcoma)) | Bliss excess [9] | Bliss excess [10] | Bliss excess (U251 (Low Grade Glioma)) | Bliss excess [11] | Bliss excess [12] | Bliss excess [13] | Bliss excess [14] | Bliss excess (WIL2-NS (Non-Cancerous)) | Bliss excess (TC-71 (Ewing's Sarcoma)) | Bliss excess [15] |
| --- | --- | --- | --- | --- | --- | --- | --- | --- | --- | --- | --- | --- | --- | --- | --- | --- | --- | --- | --- | --- |
| CC1(C)CCC(CN2CCN(c3ccc(C(=O)NS(=O)(=O)c4ccc(NCC5CCOCC5)c([N+](=O)[O-])c4)c(Oc4cnc5[nH]ccc5c4)c3)CC2)=C(c2ccc(Cl)cc2)C1 [Venetoclax] + CCN(CCO)CCCOc1ccc2c(Nc3cc(CC(=O)Nc4cccc(F)c4)[nH]n3)ncnc2c1 [AZD2811] (first compound max 1 µM, 7x7, partner max 1 µM) | 0.0178 | -0.01 | 0.0148 | 0.112 | -0.0257 | -0.0499 | 0.0103 | -0.0112 | -0.0269 | 0.0721 | -0.0236 | 0.0453 | -0.0104 | 0.0122 | 0.0063 | -0.0198 | 0.0084 | 0.0275 | 0.0227 | 0.0086 |
| CC1(C)CCC(CN2CCN(c3ccc(C(=O)NS(=O)(=O)c4ccc(NCC5CCOCC5)c([N+](=O)[O-])c4)c(Oc4cnc5[nH]ccc5c4)c3)CC2)=C(c2ccc(Cl)cc2)C1 [Venetoclax] + CN(C)CCCOc1ccc(-c2ccc3ncc4c(c3c2)n(C2CCOCC2)c(=O)n4C)cn1 [AZD0156] (first compound max 1 µM, 7x7, partner max 1 µM) | 0.0278 | 0.0232 | -0.0126 | 0.037 | 0.0042 | -0.034 | -0.0201 | 0.0055 | 0.0037 | 0.0421 | -0.0005 | -0.0128 | -0.026 | 0.0133 | -0.0292 | -0.0161 | -0.0313 | -0.0296 | -0.0022 | 0.0137 |
| CC1(C)CCC(CN2CCN(c3ccc(C(=O)NS(=O)(=O)c4ccc(NCC5CCOCC5)c([N+](=O)[O-])c4)c(Oc4cnc5[nH]ccc5c4)c3)CC2)=C(c2ccc(Cl)cc2)C1 [Venetoclax] + COc1cc(Nc2ncc3c(n2)-c2ccc(Cl)cc2C(c2c(F)cccc2OC)=NC3)ccc1C(=O)O [Alisertib] (first compound max 1 µM, 7x7, partner max 10 µM) | 0.116 | -0.0387 | -0.0669 | 0.0304 | -0.0541 | -0.0654 | -0.0869 | 0.0047 | -0.032 | 0.0385 | 0.0498 | 0.0114 | 0.0027 | 0.0603 | -0.0185 | -0.0072 | -0.0077 | -0.0522 | 0.0868 | 0.161 |
| CC1(C)CCC(CN2CCN(c3ccc(C(=O)NS(=O)(=O)c4ccc(NCC5CCOCC5)c([N+](=O)[O-])c4)c(Oc4cnc5[nH]ccc5c4)c3)CC2)=C(c2ccc(Cl)cc2)C1 [Venetoclax] + C[C@@H]1COCCN1C2=NC(=NC(=C2)C3(CC3)[S@](=N)(=O)C)C4=C5C=CNC5=NC=C4 [AZD6738] (first compound max 1 µM, 7x7, partner max 10 µM) | 0.0191 | -0.032 | 0.0189 | 0.0082 | -0.009 | -0.0419 | -0.0176 | -0.0127 | -0.0482 | -0.0268 | -0.0039 | -0.0173 | -0.0405 | -0.018 | -0.0327 | -0.105 | -0.0604 | -0.0346 | -0.0299 | 0.028 |
| CC1(C)CCC(CN2CCN(c3ccc(C(=O)NS(=O)(=O)c4ccc(NCC5CCOCC5)c([N+](=O)[O-])c4)c(Oc4cnc5[nH]ccc5c4)c3)CC2)=C(c2ccc(Cl)cc2)C1 [Venetoclax] + C[C@@H](Nc1cc(F)cc(F)c1)c1cc(C(=O)N(C)C)cc2c(=O)cc(N3CCOCC3)oc12 [AZD8186] (first compound max 1 µM, 7x7, partner max 3 µM) | 0.0053 | -0.0516 | -0.0327 | 0.106 | -0.0248 | -0.0118 | -0.041 | -0.04 | -0.031 | -0.0374 | 0.038 | -0.0031 | -0.0431 | -0.035 | -0.0215 | -0.0706 | -0.0187 | -0.0168 | -0.0381 | 0.027 |
| CC1(C)CCC(CN2CCN(c3ccc(C(=O)NS(=O)(=O)c4ccc(NCC5CCOCC5)c([N+](=O)[O-])c4)c(Oc4cnc5[nH]ccc5c4)c3)CC2)=C(c2ccc(Cl)cc2)C1 [Venetoclax] + Cc1cc2ncnn2cc1Nc1ncc2c(n1)n(C1CCOCC1)c(=O)n2C [AZD7648] (first compound max 1 µM, 7x7, partner max 10 µM) | -0.0221 | -0.0081 | -0.0129 | 0.0002 | -0.011 | -0.0624 | -0.0318 | -0.0041 | -0.0576 | 0.0149 | -0.0011 | 0.0053 | -0.0719 | -0.0591 | -0.0288 | -0.0266 | -0.0672 | -0.0684 | -0.0333 | 0.0588 |
| CC1(C)CCC(CN2CCN(c3ccc(C(=O)NS(=O)(=O)c4ccc(NCC5CCOCC5)c([N+](=O)[O-])c4)c(Oc4cnc5[nH]ccc5c4)c3)CC2)=C(c2ccc(Cl)cc2)C1 [Venetoclax] + Cn1cnc2c(F)c(Nc3ccc(Br)cc3Cl)c(C(=O)NOCCO)cc21 [Selumetinib] (first compound max 1 µM, 7x7, partner max 3 µM) | -0.0048 | -0.0116 | -0.0213 | -0.0428 | -0.0012 | -0.0011 | -0.0738 | 0.0203 | -0.0627 | -0.0068 | -0.0074 | -0.0128 | -0.0521 | 0 | -0.0377 | -0.0332 | -0.006 | -0.0318 | -0.0255 | -0.0159 |
